Experimental data published in patent EP2805714B1, “STABLE PHARMACEUTICAL COMPOSITION COMPRISING AMORPHOUS ROSUVASTATIN CALCIUM” (Antibiotice S.A., priority 2013, dated 2014).

Test: Stability test according to ICH guidelines, related substances by in-house HPLC method
Type: physicochemical
Settings: rosuvastatin calcium amorphous active substance (raw material)
Experimental: We performed stability tests on these tablet compositions, according to the method described in ICH guidelines. The tablets were packed in opaque OPA/Al/PVC-Al blisters with very low oxygen and humidity transmission rates. Using a HPLC in house method, we measured the level of lactone and total impurities formed after a period of storage of 12 months at 25°C/60%RH (normal conditions, A1) and of 6 months at 40°C/[…]. The results were compared with those obtained for the tablets at the moment of release (TO) and those obtained for the rosuvastatin calcium amorphous active substance (Table 2). Table 2. Related substances values for the tested formulations

CC(C)c1nc(N(C)S(C)(=O)=O)nc(-c2ccc(F)cc2)c1/C=C/[C@@H](O)C[C@@H](O)CC(=O)[O-].CC(C)c1nc(N(C)S(C)(=O)=O)nc(-c2ccc(F)cc2)c1/C=C/[C@@H](O)C[C@@H](O)CC(=O)[O-].[Ca+2] [RC amorphous, bis [(E)-7-[4-(4-fluorophenyl)-6-isopropyl-2-[methyl(methylsulfonyl)amino]pyrimidin-5-yl]-(3R,5S)-dihydroxyhept-6-enoic acid] calcium salt]
Lactone, %: 0.010%
Total impurities, %: 0.150%
